# Key:
# [1] = tested on: prostate cancer cell line PC-3; assay: Growth inhibition, sulforhodamine-based protein determination, PC-3; assay type: cell-based; conditions: 144 h; continuous exposure six days
# Procedure: (§1) The novel compound SR 13179 was assayed for its ability to inhibit growth in several cancer cell lines. The cell lines studied included breast cancer cell line MCF-7 (ER+); prostate cancer cell lines LNCaP, PC3, and DU145; lung cancer cell line A427; ovarian cancer cell lines IGROV1, OVCAR-3, OVCAR-4, OVCAR-5, OVCAR-8, and SK-OV-3; and colon cancer cell lines COLO 205, HCC-2998, HCT-116, HCT-15, HT29, KM12, AND SW-620.
# (§2) The growth assays for the breast cancer cell lines were conducted according to the method of Example 16. For the other cell lines, each assay was conducted with continuous exposure to the test compound at four log concentrations for six days, using a sulforhodamine-based protein determination to measure growth inhibition.
# [2] = tested on: ovarian cancer cell line OVCAR-4; assay: Growth inhibition, sulforhodamine-based protein determination, OVCAR-4; assay type: cell-based; conditions: Homo sapiens, OVCAR-4, 144 h; continuous exposure six days
# Procedure: as §1, §2
# [3] = tested on: ovarian cancer cell line OVCAR-5; assay: Growth inhibition, sulforhodamine-based protein determination, OVCAR-5; assay type: cell-based; conditions: Homo sapiens, OVCAR-5, 144 h; continuous exposure six days
# Procedure: as §1, §2
# [4] = tested on: ovarian cancer cell line OVCAR-8; assay: Growth inhibition, sulforhodamine-based protein determination, OVCAR-8; assay type: cell-based; conditions: Homo sapiens, OVCAR-8, 144 h; continuous exposure six days
# Procedure: as §1, §2
# [5] = tested on: colon cancer cell line HCT-15; assay: Growth inhibition, sulforhodamine-based protein determination, HCT-15; assay type: cell-based; conditions: Homo sapiens, HCT-15, 144 h; continuous exposure six days
# Procedure: as §1, §2
# [6] = tested on: colon cancer cell line KM12; assay: Growth inhibition, sulforhodamine-based protein determination, KM12; assay type: cell-based; conditions: Homo sapiens, KM12, 144 h; continuous exposure six days
# Procedure: as §1, §2
# [7] = tested on: human umbilical vein endothelial cells (HUVECs); assay: Growth inhibition of HUVECs, MTT assay; assay type: cell-based; conditions: HUVEC, read-out: concentration to inhibit growth by 50%, HUVECs
# Procedure: Angiogenesis depends upon the proliferation of vascular endothelial cells. To determine the potential antiangiogenic activity of SR 13179, the compound's ability to inhibit the proliferation of these cells was assayed. Apoptosis was then investigated as a possible mechanism for the antiproliferative activity.
# Human vascular endothelial cells taken from umbilical veins (HUVECs) were obtained from Clonetics Corporation (San Diego, Calif.). Growth inhibition was measured quantitatively using the MTT assay as described by Mosmann et al., cited in the previous example.
# The concentration to inhibit growth by 50% was 0.37 μM.
# [8] = tested on: SKOV-3 human ovarian cancer xenografts; assay: SKOV-3 adriamycin- and cisplatin-resistant human ovarian cancer xenografts in nude mice; assay type: in vivo, female BALB/c mice
# Procedure: The in vivo antitumor activity of SR 13179 against the highly aggressive adriamycin and cisplatin-resistant human ovarian cancer cell line SKOV-3 was evaluated in nude mice xenografts. The experiment was carried out as follows: Female BALB/c mice were inoculated subcutaneously with the human ovarian cancer SKOV-3 cells on both flanks. SR 13179 was administered to the mice on the same day as tumor cell inoculation, via two routes of administration, orally and intraperitoneally, in three doses of 10 mg/kg, 30 mg/kg and 100 mg/kg, once a day as a suspension in 0.5% hydroxypropylcellulose. Body weights and tumor volumes were measured twice a week. Results. […] The body weights of the treated mice were unaffected at all doses studied.
# [9] = tested on: MDA-MB-231 breast cancer cells; assay: Boyden-chamber Matrigel invasion/migration assay, MDA-MB-231; assay type: cell-based, human
# Procedure: Cell Culture. MCF-10CA1a cells were cultured in Dulbecco's Modified Eagle Medium (DMEM) supplemented with 5% bovine serum, 2 mM glutamine and 1 mM non-essential amino acids. MDA-MB231 cells were grown in DMEM supplemented with 5% bovine serum. Cells were routinely maintained in a 5% CO2 incubator at 37° C.
# General Procedure for Invasion Assay. MCF 10-CA1a or MDA-MB-231 breast cancer cells were treated with 1 or 5 μM of the compound being tested for 8 h. Cells were removed by trypsinizing and tested for their invasiveness by Boyden-chamber invasion assay. In the in vitro invasion/migration assays, a standard Matrigel-based assay, according to the manufacturer's (Becton-Dickinson) protocol, was used. Rehydrated Matrigel and control inserts were added to Falcon TC companion plates containing human fibronectin (30 μg/ml) as chemoattractant. Cellular suspensions (2×10^4 cells/0.5 ml) were added to individual wells of 24-well chambers (containing either control or Matrigel inserts), and the plates incubated (37° C., 5% CO2) in the presence of the compound being tested or vehicle for an additional 16-18 h. Non-invading or non-migrating cells were removed by scraping the top surfaces of the Matrigel and control inserts, respectively. The invading (or migrating) cells (on the bottom surface) were fixed (3.7% formaldehyde) and stained with Accustain (Sigma). The percent invasion was calculated as mean number of invading cells/the mean number of cells migrating through a control membrane×100.
# The in vitro invasion through Matrigel was studied for two human breast cancer lines: MCF-10CA1a, a highly metastatic ER^+ line and MDA-MB-231, an ER^− line. […] At this concentration, SR13179 inhibited invasion of MDA-MB-231 by about 30% (and by 70% at 5 μM). To rule out a cytotoxic effect in the inhibition of invasion, a concurrent cytotoxicity assay was carried out and the number of viable cells was determined by MTT assay. There was less than 5% decrease in MDA-MB-231 cell viability at 5 μM concentration of SR13179 at 22 h. In the same experiment, a motility experiment was conducted, showing that cell migration was inhibited by about 20%.
# MMP-2 = assay: Western blotting of cell-associated MMP-2 protein, MCF-10-CA1a cells; assay type: cell-based, human; conditions: 1, 3, or 5 μM, 48 h
# Excerpt: Western Blotting. Proteins were separated by gel electrophoresis using 4-12% pre-cast SDS-polyacrylamide gels (Invitrogen, Carlsbad, Calif.) and then electrophoretically transferred onto Hybond™-P membrane (Amersham Biosciences, Piscataway, N.J.). Blots were probed with specific antibodies (Santa Cruz Biotechnology, Inc). The ECL Plus Western Blotting Detection System of Amersham Biosciences (Piscataway, N.J.) and the procedure recommended by the manufacturer was used for the detection of antigens. Protein bands were quantified by analyzing the images obtained using an Alphaimager™ S-3400 (Alpha Innotech Corp., San Leandro, Calif.).
# The effect of SR 13179 on cell-associated MMP-2 and MMP-9 protein levels was studied. MCF-10-CA1a cells were treated with SR 13179 at 1, 3, or 5 μM concentrations for 48 h. Untreated cells were used as control. Proteins were separated by SDS-Polyacrylamide gel electrophoresis and electrophoretically transformed onto Hybond™ P membrane (Amerhsam Biosciences). Blots were probed with specific antibodies (Santa Cruz Biotechnology Inc.).
# p38 MAPK = biological target: T1, p38 MAPK (Homo sapiens, UniProt Q16539); assay: Inhibition of p38 MAPK in MCF-7 cells; assay type: cell-based; conditions: MCF-7 human breast cancer cell line
# T1 construct: endogenous in cells; host or cells: MCF-7 human breast cancer cells
# T1 sequence (Q16539 whole entry): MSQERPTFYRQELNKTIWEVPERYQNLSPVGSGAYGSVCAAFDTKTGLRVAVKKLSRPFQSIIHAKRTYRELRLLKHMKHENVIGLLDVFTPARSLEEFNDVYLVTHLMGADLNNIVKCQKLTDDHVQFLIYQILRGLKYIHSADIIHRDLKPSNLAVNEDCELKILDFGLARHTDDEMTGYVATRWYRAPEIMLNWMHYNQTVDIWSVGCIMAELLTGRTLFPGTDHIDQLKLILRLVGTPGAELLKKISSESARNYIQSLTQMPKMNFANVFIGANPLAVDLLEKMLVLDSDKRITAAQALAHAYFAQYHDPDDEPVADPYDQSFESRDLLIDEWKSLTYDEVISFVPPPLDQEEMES
compound,measurement,setting,value
"COc1cc(C2CC(O)c3ccc4ccccc4c3O2)cc(OC)c1OC (centres unmarked) [SR 13179, 2-(3,4,5-trimethoxyphenyl)-3,4-dihydro-2H-benzo[h]chromen-4-ol]",IC50,[1],289 nM
same,IC50,[2],423 nM
same,IC50,[3],1360 nM
same,IC50,[4],364 nM
same,IC50,[5],270 nM
same,IC50,[6],168 nM
same,IC50,[7],370 nM
same,tumors smaller than untreated control,"[8]; Day 10, oral and i.p., 10, 30 and 100 mg/kg once a day",about 50%
same,body weights of the treated mice,"[8]; all doses studied (10, 30, 100 mg/kg; oral and i.p.)",unaffected
same,tumor growth compared to untreated control,"[8]; duration of the four-week study, oral and i.p.",significantly inhibited
same,Invasion (%),[9]; 1 μM,60%
same,Invasion (%),[9]; 5 μM,25%
same,inhibition at 1 µM,"[9]; Homo sapiens, MDA-MB-231, 1 μM",~30%
same,inhibition at 5 µM,"[9]; Homo sapiens, MDA-MB-231, 5 μM",70%
same,inhibition of cell migration (motility experiment),[9]; same experiment as the cytotoxicity assay,about 20%
same,cell-associated MMP-2 protein levels,MMP-2,does not affect
same,p38 MAPK,p38 MAPK,inhibited

# From patent publication US7638554B2, “Flavanoids as chemotherapeutic, chemopreventive, and antiangiogenic agents” (SRI International, priority 2002, dated 2009)
